Laboratory results reported in patent publication US8178658B2 (Dow AgroSciences, LLC, priority 2008, dated 2012).

Tests used:
[1] = test system: beet armyworm (BAW; Spodoptera exigua: Lepidoptera); assay: 128-well diet tray assay on beet armyworm (BAW 50); assay type: in vivo; conditions: 128-well diet tray assay; 50 μg/cm^2 of test compound on diet; second instar BAW larvae; mortality class
Experimental: (§1) Bioassays on beet armyworm (BAW; Spodoptera exigua: Lepidoptera) were conducted using either a 96-well microtiter plate-based high throughput (HTS) bioassay or a 128-well diet tray assay. The HTS assay is a based on a modification of Lewer et al. J. Nat. Prod. 2006, 69, 1506. BAW eggs of were placed on top of artificial diet (100 μl) in each well of 96-well microtiter plate. The diet was pretreated with test compounds (12 μg dissolved in 30 μL of DMSO-acetone-water mixture) layered on top of the diet using a liquid handling system and then allowed to dry for several hours. Infested plates were then covered with a layer of sterile cotton batting and the plate lid, and then held in the dark at 29° C. Mortality was recoded at 6 d post-treatment. Each plate had six replicates. The percent mortality was calculated from the average of the six replicates. In the case of the 128-well diet assay, three to five second instar BAW larvae were placed in each well (3 mL) of the diet tray that had been previously filled with 1 mL of artificial diet to which 50 μg/cm^2 of the test compound (dissolved in 50 μL of 90:10 acetone-water mixture) had been applied (to each of eight wells) and then allowed to dry. Trays were covered with a clear self-adhesive cover, and held at 25° C., 14:10 light-dark for six days. Percent mortality was recorded for the larvae in each well; activity in the eight wells was then averaged. In Table 7, under the BAW HTS or BAW 50 heading, an “A” means that the compound was tested and at least 50 percent mortality was observed whereas, “B” means that either (1) the compound was tested and less than 50 percent mortality was observed or (2) the compound was not tested.

[2] = test system: beet armyworm (BAW; Spodoptera exigua: Lepidoptera); assay: 96-well microtiter plate-based high throughput (HTS) diet bioassay on beet armyworm (BAW HTS); assay type: in vivo; conditions: BAW eggs, 12 μg test compound per well, mortality at 6 d post-treatment, mortality class
Experimental: as §1

[3] = 96-well microtiter plate HTS diet assay

| Compound | BAW 50 ug/cm2 [1] | BAW HTS ([2]; 96-well HTS diet bioassay) | BAW HTS [2, 3] |
| --- | --- | --- | --- |
| COC1C(C)OC(ON=Cc2ccc(-c3cn(-c4nc(F)c(F)c(F)c4F)cn3)cc2)C(OC)C1OC (stereo not drawn) [Compound 38] | A (the compound was tested and at least 50 percent mortality was observed) | B (either (1) the compound was tested and less than 50 percent mortality was observed or (2) the compound was not tested) | B (either (1) the compound was tested and less than 50 percent mortality was observed or (2) the compound was not tested) |
| COC1C(C)OC(ON=Cc2ccc(-c3cn(-c4ccc(I)cn4)cn3)cc2)C(OC)C1OC (stereo not drawn) [Compound 39] | A (the compound was tested and at least 50 percent mortality was observed) | B (either (1) the compound was tested and less than 50 percent mortality was observed or (2) the compound was not tested) | B (either (1) the compound was tested and less than 50 percent mortality was observed or (2) the compound was not tested) |
| COc1ccc(C=NOC2OC(C)C(OC)C(OC)C2OC)cc1-c1cn(-c2ccc(C(F)(F)F)cc2)cn1 (stereo not drawn) [Compound 40] | A (the compound was tested and at least 50 percent mortality was observed) | B (either (1) the compound was tested and less than 50 percent mortality was observed or (2) the compound was not tested) | B (either (1) the compound was tested and less than 50 percent mortality was observed or (2) the compound was not tested) |
| COC1C(C)OC(ON=Cc2ccc(-c3cn(-c4ccc(C)cc4)cn3)cc2)C(OC)C1OC (stereo not drawn) [Compound 41] | A (the compound was tested and at least 50 percent mortality was observed) | B (either (1) the compound was tested and less than 50 percent mortality was observed or (2) the compound was not tested) | B (either (1) the compound was tested and less than 50 percent mortality was observed or (2) the compound was not tested) |
| COC1C(C)OC(ON=Cc2ccc(-c3cn(-c4ccc(C(F)(F)F)cc4)cn3)cc2)C(OC)C1OC (stereo not drawn) [Compound 42] | A (the compound was tested and at least 50 percent mortality was observed) | B (either (1) the compound was tested and less than 50 percent mortality was observed or (2) the compound was not tested) | B (either (1) the compound was tested and less than 50 percent mortality was observed or (2) the compound was not tested) |
| COC1C(C)OC(ON=Cc2ccc(-c3cn(-c4ccc(Cl)cc4)cn3)cc2)C(OC)C1OC (stereo not drawn) [Compound 43] | A (the compound was tested and at least 50 percent mortality was observed) | B (either (1) the compound was tested and less than 50 percent mortality was observed or (2) the compound was not tested) | B (either (1) the compound was tested and less than 50 percent mortality was observed or (2) the compound was not tested) |
| COc1ccc(-n2cnc(-c3ccc(C=NOC4OC(C)C(OC)C(OC)C4OC)cc3)c2)cc1 (stereo not drawn) [Compound 44] | A (the compound was tested and at least 50 percent mortality was observed) | B (either (1) the compound was tested and less than 50 percent mortality was observed or (2) the compound was not tested) | B (either (1) the compound was tested and less than 50 percent mortality was observed or (2) the compound was not tested) |
| COC1C(C)OC(ON=Cc2ccc(-c3cn(-c4ccc(Br)cc4)cn3)cc2)C(OC)C1OC (stereo not drawn) [Compound 45] | A (the compound was tested and at least 50 percent mortality was observed) | B (either (1) the compound was tested and less than 50 percent mortality was observed or (2) the compound was not tested) | B (either (1) the compound was tested and less than 50 percent mortality was observed or (2) the compound was not tested) |
| COC1C(C)OC(ON=Cc2ccc(-c3cn(-c4ccc(C(C)C)cc4)cn3)cc2)C(OC)C1OC (stereo not drawn) [Compound 46] | A (the compound was tested and at least 50 percent mortality was observed) | B (either (1) the compound was tested and less than 50 percent mortality was observed or (2) the compound was not tested) | B (either (1) the compound was tested and less than 50 percent mortality was observed or (2) the compound was not tested) |
| COC1C(C)OC(ON=Cc2ccc(-c3cn(-c4ccc(I)cc4)cn3)cc2)C(OC)C1OC (stereo not drawn) [Compound 47] | A (the compound was tested and at least 50 percent mortality was observed) | B (either (1) the compound was tested and less than 50 percent mortality was observed or (2) the compound was not tested) | B (either (1) the compound was tested and less than 50 percent mortality was observed or (2) the compound was not tested) |
| COC1C(C)OC(ON=Cc2ccc(-c3cn(-c4ccc(C(C)(C)C)cc4)cn3)cc2)C(OC)C1OC (stereo not drawn) [Compound 48] | A (the compound was tested and at least 50 percent mortality was observed) | B (either (1) the compound was tested and less than 50 percent mortality was observed or (2) the compound was not tested) | B (either (1) the compound was tested and less than 50 percent mortality was observed or (2) the compound was not tested) |
| COC1C(C)OC(ON=Cc2ccc(-c3cn(-c4ccc(OC(F)(F)F)cc4)cn3)c(F)c2F)C(OC)C1OC (stereo not drawn) [Compound 49] | A (the compound was tested and at least 50 percent mortality was observed) | B (either (1) the compound was tested and less than 50 percent mortality was observed or (2) the compound was not tested) | B (either (1) the compound was tested and less than 50 percent mortality was observed or (2) the compound was not tested) |
| COC1C(C)OC(ON=Cc2ccc(Cl)c(-c3cn(-c4ccc(OC(F)(F)F)cc4)cn3)c2)C(OC)C1OC (stereo not drawn) [Compound 50] | A (the compound was tested and at least 50 percent mortality was observed) | A (the compound was tested and at least 50 percent mortality was observed) | A (the compound was tested and at least 50 percent mortality was observed) |
| CO[C@@H]1[C@@H](OC)[C@H](C)O[C@@H](O/N=C/c2ccc(-c3cn(-c4ccc(OC(F)(F)C(F)(F)F)cc4)cn3)cc2)[C@@H]1OC [Compound 51] | A (the compound was tested and at least 50 percent mortality was observed) | B (either (1) the compound was tested and less than 50 percent mortality was observed or (2) the compound was not tested) | B (either (1) the compound was tested and less than 50 percent mortality was observed or (2) the compound was not tested) |
| CCOC1C(C)OC(ON=Cc2ccc(-c3cn(-c4ccc(OC(F)(F)C(F)(F)F)cc4)cn3)cc2)C(OCC)C1OCC (stereo not drawn) [Compound 52] | A (the compound was tested and at least 50 percent mortality was observed) | B (either (1) the compound was tested and less than 50 percent mortality was observed or (2) the compound was not tested) | B (either (1) the compound was tested and less than 50 percent mortality was observed or (2) the compound was not tested) |
| CCOC(=O)C1C(c2ccc(/C=N/O[C@@H]3O[C@@H](C)[C@H](OC)[C@@H](OC)[C@H]3OC)cc2)=NN(c2ccc(OC(F)(F)F)cc2)C1C(=O)OCC (stereo partly drawn) [Compound 53] | A (the compound was tested and at least 50 percent mortality was observed) | A (the compound was tested and at least 50 percent mortality was observed) | A (the compound was tested and at least 50 percent mortality was observed) |
| COC(=O)C1CC(c2ccc(/C=N/O[C@@H]3O[C@@H](C)[C@H](OC)[C@@H](OC)[C@H]3OC)cc2)=NN1c1ccc(OC(F)(F)F)cc1 (stereo partly drawn) [Compound 54] | A (the compound was tested and at least 50 percent mortality was observed) | A (the compound was tested and at least 50 percent mortality was observed) | A (the compound was tested and at least 50 percent mortality was observed) |
| CCCC1C(c2ccc(/C=N/O[C@@H]3O[C@@H](C)[C@H](OC)[C@@H](OC)[C@H]3OC)cc2)=NN(c2ccc(OC(F)(F)F)cc2)C1C(=O)OCC (stereo partly drawn) [Compound 55] | A (the compound was tested and at least 50 percent mortality was observed) | A (the compound was tested and at least 50 percent mortality was observed) | A (the compound was tested and at least 50 percent mortality was observed) |
| CCOC(=O)C1C(C)C(c2ccc(/C=N/O[C@@H]3O[C@@H](C)[C@H](OC)[C@@H](OC)[C@H]3OC)cc2)=NN1c1ccc(OC(F)(F)F)cc1 (stereo partly drawn) [Compound 56] | A (the compound was tested and at least 50 percent mortality was observed) | A (the compound was tested and at least 50 percent mortality was observed) | A (the compound was tested and at least 50 percent mortality was observed) |
